Results reported in patent US20260166021A1, “POLYMORPHIC FORMS OF A SOLUBLE EPOXIDE HYDROLASE INHIBITOR AND FORMULATIONS THEREOF” (EicOsis, LLC, priority 2022, published 2026).

Tests used:
[1] = Differential scanning calorimetry (DSC): heat of fusion, thermal events; format: physicochemical; conditions: for thermodynamic stability (from heat of fusion) / Heat of fusion: DSC; for thermodynamic stability (from heat of fusion): TABLE 10; for Heat of fusion: scaled-up polymorphs, measured during conversion from Form C
Procedure: Differential scanning calorimetry analyses were performed on each sample “as is.” Unless otherwise specified, samples were weighed in an aluminum pan, covered with a pierced lid, and then crimped and analyzed from 30-300° C. ramped at 10° C./min.
The DSC data were used to determine the heat of fusion for Forms A, B, D, and F, based on their heats of fusion as measured during conversion from Form C.

[2] = Thermal gravimetric analysis (TGA); format: physicochemical
Procedure: Thermal gravimetric analyses were performed on each sample “as is.” Unless otherwise noted, samples were weighed in an alumina crucible and analyzed from 30-350° C. at 10° C./min.
Form C weight loss at 39° C.-50° C. likely reflected methanol loss.

[3] = Competitive slurry experiments (solvent-mediated polymorph transformation, XRD); format: physicochemical; conditions: room temperature, 1 and 7 days
Procedure: Polymorph stability and interconversions were analyzed with competitive slurry experiments. The competitive slurry (solvent-mediated transformation) experiments were performed on Forms A, B, D, E, F, G, and I generated through scaled-up crystallization (summarized in TABLE 11). […] The suspensions were aliquoted at one day and seven days and filtered to isolate the solids. Remaining solid was analyzed by XRD without drying.
In FIG. 66, the second spectrum from the top corresponds to Form E. These XRD data confirmed that Patterns C, K, and D were afforded in these solvents.
In order to further confirm the rank of stability order of the selected forms and extend the temperature range of stability relationship up to 70° C. covering potential API process conditions, binary form slurries were conducted with starting mixtures of (1) Forms A and D, and (2) Forms D and E. The resultant polymorphs were characterized with XRD after 1 and 7 days, the results of which analyses are shown in FIGURE S 67-68 and summarized in TABLE 13. Pattern D stood out from both binary mixture slurries of A & D and of D & E after seven-day stirring at the elevated temperature.
Additional single form slurry experiments were conducted on Forms A, D, and E in either water or heptane at room temperature. […] In agreement with prior competitive slurry experiments, Form D was stable at room temperature in n-heptane. Pattern E was obtained from slurries starting with Forms A and E in n-heptane. As expected, Form C was formed from the Pattern E slurry in water.

[4] = Thermal stress studies at 60° C. (XRD, HPLC); format: physicochemical; conditions: for Day 1 % AUC / Day 7 % AUC / Initial % AUC: HPLC; for Initial % AUC: before thermal stress
Procedure: Briefly, 20 mg of solid Form A, B, C, D, E, F, G, and I were weighed into 7 mL glass vials. The vials were covered with tissue and stored in ovens set to 60° C. and ambient pressure. Following 1 and 7 days incubation, solid was collected for XRD analysis.
As shown in these figures, Forms B and C converted to Forms D and A, respectively, while the other forms remained unchanged.
The starting materials, intermediates (1 day of thermal stress), and products (7 days of thermal stress) were analyzed by H PLC. Representative chromatograms from the Form D thermal stress analyses are shown in FIGS. 81-83 (starting material, 1 day, and 7 day samples, respectively).

[5] = Crystallization of Formula (I) in single- and binary-solvent systems (resultant XRD pattern)
Procedure: Formula (I) crystallization was first analyzed in single-solvent systems lacking antisolvent. […] Fast cooling was performed by placing the vials in a 4° C. refrigerator for 24 hours, while slow cooling was performed by decreasing the temperatures of the vials by 20° C./h with stirring. The resulting solids were isolated by centrifuge filtration through […] centrifuge filters. When solids were not produced, the solution was evaporated under nitrogen as an additional attempt to obtain solid. All obtained solids were analyzed by XRD to determine the solid pattern.
Formula (I) recrystallization was then tested with binary-solvent systems containing water, n-heptane, or c-hexane as antisolvent. […] Anti solvents were added drop-wise at the same temperature until precipitate was observed or the vial volume was reached (˜7 mL). The vials were quickly cooled to 4° C. or slowly cooled by 20° C./hour as in the single-solvent recrystallizations. The resulting solids were isolated by centrifuge filtration. The samples without precipitation were evaporated to dryness under a gentle stream of nitrogen gas as an additional attempt to obtain solid. All obtained solids were analyzed by XRD to determine the solid form. […]

CC[C@H](C)C(=O)N1CCC(NC(=O)Nc2ccc(OC(F)(F)F)c(F)c2)CC1 [C]
DSC Thermal Events, Endo: dehydration of bound water of pattern C [1]: 73° C.: dehydration of bound water of | DSC Thermal Events, Endo: melting of pattern A [1]: 109 °C melting of pattern A | DSC Thermal Events, Endo: melting of pattern F [1]: 147 °C melting of pattern F | DSC Thermal Events, Exo: crystallization of pattern F [1]: 114 °C crystallization of pattern F | TGA: wt change ([2]; at range 39° C.-50° C.): 1.4% wt change at

CC[C@H](C)C(=O)N1CCC(NC(=O)Nc2ccc(OC(F)(F)F)c(F)c2)CC1 [E]
DSC Thermal Events, Endo: dehydration of bound water of pattern E [1]: 121 °C dehydration of bound water of | DSC Thermal Events, Endo: melting of pattern D [1]: 142 °C melting of pattern D | DSC Thermal Events, Endo: melting of pattern F [1]: 148 °C melting of pattern F | DSC Thermal Events, Exo: crystallization of pattern D [1]: 126 °C crystallization of pattern D | DSC Thermal Events, Exo: crystallization of pattern F [1]: 144 °C crystallization of pattern F | TGA: wt change ([2]; at range 116° C.-119° C.): 4.7% wt change at

CC[C@H](C)C(=O)N1CCC(NC(=O)Nc2ccc(OC(F)(F)F)c(F)c2)CC1 [Form A, (S)-1-(3-fluoro-4-(trifluoromethoxy)phenyl)-3-(1-(2-methylbutanoyl)piperidin-4-yl)urea]
DSC Thermal Events, Endo: melting of pattern A [1]: 113 °C melting of pattern A | DSC Thermal Events, Endo: melting of pattern D [1]: 141 °C melting of pattern D (shoulder) | DSC Thermal Events, Endo: melting of pattern F [1]: 148 °C meting of patter F | DSC Thermal Events, Exo: crystallization of pattern D [1]: 127 °C crystallization of pattern D | DSC Thermal Events, Exo: crystallization of pattern F [1]: 117 °C crystallization of pattern | thermodynamic stability (from heat of fusion) [1]: thermodynamically stable | Heat of fusion [1]: 29.73 | single form slurry in n-heptane: resultant polymorph [3]: Pattern E | TGA: wt change ([2]; below 150° C.): No wt change below | Day 1 % AUC ([4]; 60° C.): 100% | Day 7 % AUC ([4]; 60° C.): 100% | Initial % AUC [4]: 100%

CC[C@H](C)C(=O)N1CCC(NC(=O)Nc2ccc(OC(F)(F)F)c(F)c2)CC1 [Form B, (S)-1-(3-fluoro-4-(trifluoromethoxy)phenyl)-3-(1-(2-methylbutanoyl)piperidin-4-yl)urea]
DSC Thermal Events, Endo: melting of pattern B [1]: 146 °C melting of pattern B | DSC Thermal Events, Endo: melting of pattern D [1]: 141 °C melting of pattern D | thermodynamic stability (from heat of fusion) [1]: thermodynamically stable | Heat of fusion ([1]; listed as B): 53.14 | TGA: wt change ([2]; below 150° C.): No wt change below | conversion to Form D ([4]; 60° C., following one day of incubation): 100%

CC[C@H](C)C(=O)N1CCC(NC(=O)Nc2ccc(OC(F)(F)F)c(F)c2)CC1 [Form E, (S)-1-(3-fluoro-4-(trifluoromethoxy)phenyl)-3-(1-(2-methylbutanoyl)piperidin-4-yl)urea]
single form slurry in n-heptane: resultant polymorph [3]: Pattern E | single form slurry in water: resultant polymorph ([3]; water): Form C

CC[C@H](C)C(=O)N1CCC(NC(=O)Nc2ccc(OC(F)(F)F)c(F)c2)CC1 [Form F, (S)-1-(3-fluoro-4-(trifluoromethoxy)phenyl)-3-(1-(2-methylbutanoyl)piperidin-4-yl)urea]
DSC Thermal Events, Endo: melting of pattern F [1]: 150 °C melting of pattern F | Heat of fusion ([1]; listed as F): 57.06 | Day 1 % AUC ([4]; 60° C.): 100% | Day 7 % AUC ([4]; 60° C.): 100% | Initial % AUC [4]: 100%

CC[C@H](C)C(=O)N1CCC(NC(=O)Nc2ccc(OC(F)(F)F)c(F)c2)CC1 [Formula (I) Form C]
Formula (I) Product Form ([5]; Acetone (0.1)/n-Heptane (0.4), 50° C., Slow, ppt/evaporate): B + E | Formula (I) Product Form ([5]; DMSO (0.1)/Water (0.05), 70° C., Slow, ppt/filtered): D + F | Formula (I) Product Form ([5]; EtOH (0.1)/c-Hexane (6), 70° C., Slow, clear/): F + H | Formula (I) Product Form ([5]; IPA (0.1)/c-Hexane (2), 70° C., Fast, ppt/filtered): H + F | Formula (I) Product Form ([5]; NMP (0.1)/c-Hexane (6), 70° C., Slow, clear/evaporate): D + F

CC[C@H](C)C(=O)N1CCC(NC(=O)Nc2ccc(OC(F)(F)F)c(F)c2)CC1 [G]
DSC Thermal Events, Endo: melting of pattern G [1]: 143 °C melting of pattern G | Day 7 XRD ([4]; 60° C., ambient pressure): G/L

CC[C@H](C)C(=O)N1CCC(NC(=O)Nc2ccc(OC(F)(F)F)c(F)c2)CC1 [H]
DSC Thermal Events, Endo: dehydration of bound water of pattern C [1]: 83° C.: dehydration of bound water of | DSC Thermal Events, Endo: desolvation of pattern H [1]: 129 °C desolvation of pattern H | DSC Thermal Events, Endo: melting of pattern A [1]: 140 °C melting of pattern A | DSC Thermal Events, Endo: melting of pattern F [1]: 148 °C melting of pattern F | DSC Thermal Events, Exo: crystallization of pattern D [1]: 133 °C crystallization of pattern D | DSC Thermal Events, Exo: crystallization of pattern F [1]: 142 °C crystallization of patter F | TGA: wt change ([2]; at 83° C.): No detectable wt | TGA: wt change ([2]; at range […] C.-126° C.): 7.2% wt change at

CC[C@H](C)C(=O)N1CCC(NC(=O)Nc2ccc(OC(F)(F)F)c(F)c2)CC1 [I]
DSC Thermal Events, Endo: melting of pattern I [1]: 144 °C melting of pattern I

CC[C@H](C)C(=O)N1CCC(NC(=O)Nc2ccc(OC(F)(F)F)c(F)c2)CC1 [J]
DSC Thermal Events, Endo: dehydration of bound water/desolvation of pattern J or another unknown pattern [1]: 129 °C dehydration of bound | DSC Thermal Events, Endo: melting of pattern B [1]: 146 °C melting of pattern B | DSC Thermal Events, Endo: melting of pattern F [1]: 149 °C melting of pattern F | DSC Thermal Events, Endo: melting of unknown pattern [1]: 140 °C melting of unknown | DSC Thermal Events, Exo: crystallization of unknown pattern [1]: 103 °C crystallization of unknown | DSC Thermal Events, Endo: dehydration of bound water/desolvation of pattern J ([1]; major peak with a shoulder): 91 °C dehydration of bound | TGA: wt change ([2]; at range 75° C.-82° C.): 3.7% wt change at | TGA: wt change ([2]; at range 116° C.-[…] C.): 4.6% wt change at

CC[C@H](C)C(=O)N1CCC(NC(=O)Nc2ccc(OC(F)(F)F)c(F)c2)CC1 [K]
DSC Thermal Events, Endo: dehydration of bound water/desolvation of pattern K [1]: 127 °C dehydration of bound water/ | DSC Thermal Events, Endo: melting of pattern D [1]: 142 °C melting of pattern D | DSC Thermal Events, Endo: melting of pattern F [1]: 148 °C melting of pattern F | DSC Thermal Events, Exo: crystallization of pattern D [1]: 130 °C crystallization of pattern D | TGA: wt change ([2]; at range 120° C.-[…] C.): 5.0% wt change at

CC[C@H](C)C(=O)N1CCC(NC(=O)Nc2ccc(OC(F)(F)F)c(F)c2)CC1 [L]
DSC Thermal Events, Endo: melting of pattern D [1]: 141 °C melting of pattern D | DSC Thermal Events, Endo: melting of pattern F [1]: 148 °C melting of pattern F | DSC Thermal Events, Exo: crystallization of pattern D [1]: 138 °C crystallization of pattern D | DSC Thermal Events, Exo: crystallization of pattern F [1]: 143 °C crystallization of patter F | TGA: wt change ([2]; at range 107° C.-[…] C.): 0.4% wt change at | TGA: wt change ([2]; at range […] C.-135° C.): 0.3% wt change at

CC[C@H](C)C(=O)N1CCC(NC(=O)Nc2ccc(OC(F)(F)F)c(F)c2)CC1 [Lot 3]
Endotherm (likely dehydration of bound water) ([1]; DSC thermogram of lot): 84 °C | Endotherm (melting of Form A) ([1]; DSC thermogram of lot): 111 °C (melting of Form A), | Exotherm (crystallization of Form B) ([1]; DSC thermogram of lot): 117 °C (crystallization of
